ChEMBL document CHEMBL1124733, “Synthesis and cardiac electrophysiological activity of N-substituted-4-(1H-imidazol-1-yl)benzamides--new selective class III agents” (J Med Chem, 1990)
“And” between values parts separate entries of the source, which are not always exact repeats. Equal values may be shown once.

Legend:
Canis familiaris [1] = species on record: Canis familiaris; assay: Maximum observed percent change in action potential duration (APD) at 95% repolarization at 30 uM using standard microelectrode technique in isolated canine cardiac Purkinje fibers; type: functional, Canis lupus familiaris, Purkinje fiber
[2] = Percent change in the Vmax at a 10 uM concentration of the test compound; Minimal; type: ADME
[3] = Maximum observed percent change in Vmax and the concentration at which it was observed was determined at 30 uM; Minimal; type: ADME
Canis familiaris [4] = species on record: Canis familiaris; assay: Concentration which caused a 20% increase in AP95 was determined.; type: functional, Canis lupus familiaris
Canis familiaris [5] = species on record: Canis familiaris; assay: Maximum observed percent change in action potential duration (APD) at 95% repolarization at 10 uM using standard microelectrode technique in isolated canine cardiac Purkinje fibers; type: functional, Canis lupus familiaris, Purkinje fiber
Canis familiaris [6] = species on record: Canis familiaris; assay: Percent change in action potential duration at 95% repolarization and 10 uM in isolated canine cardiac Purkinje fibres.; type: functional, Canis lupus familiaris, Purkinje fiber
[7] = Maximum observed percent change in Vmax and the concentration at which it was observed was determined at 100 uM; Minimal; type: ADME
Canis familiaris [8] = assay: In vivo electrophysiology was given as change in Function refractory period at 30 mg/kg, id; type: functional, Canis lupus familiaris; conditions: route intraduodenal
Canis familiaris [9] = assay: Number of animals in which sustained ventricular tachycardia or ventricular fibrillation was not inducible after drug administration among the number of animals tested (6) in PES efficacy model of anesthetized dog; type: functional, Canis lupus familiaris, Cardiac ventricle
Canis familiaris [10] = assay: In vivo electrophysiology was given as change in Function refractory period at 3 mg/kg, iv; type: functional, Canis lupus familiaris
Canis familiaris [11] = assay: Effective dose with the number of animals in PES efficacy model of conscious dog; Not effective in two animals; type: functional, Canis lupus familiaris
Canis familiaris [12] = assay: In vivo electrophysiology was given as change in Function refractory period at 10 mg/kg, id; type: functional, Canis lupus familiaris; conditions: route intraduodenal
Canis familiaris [13] = assay: Percent change in heart rate from control at 30 mg/kg, id; type: functional, Canis lupus familiaris; conditions: route intraduodenal
Canis familiaris [14] = species on record: Canis familiaris; assay: Maximum observed percent change in action potential duration (APD) at 95% repolarization at 100 uM using standard microelectrode technique in isolated canine cardiac Purkinje fibers; type: functional, Canis lupus familiaris, Purkinje fiber
Canis familiaris [15] = assay: Number of animals in which sustained ventricular tachycardia or ventricular fibrillation was not inducible after drug administration among the number of animals tested (4) in PES efficacy model of anesthetized dog; type: functional, Canis lupus familiaris, Cardiac ventricle
Canis familiaris [16] = assay: Effective dose with the number of animals in PES efficacy model of anesthetized dog; type: functional, Canis lupus familiaris
Canis familiaris [17] = assay: Percent change in heart rate from control at 10 mg/kg, id; type: functional, Canis lupus familiaris; conditions: route intraduodenal
Canis familiaris [18] = assay: Effective dose with the number of animals in PES efficacy model of conscious dog; type: functional, Canis lupus familiaris
Canis familiaris [19] = assay: Percent change in heart rate from control at 3 mg/kg, iv; type: functional, Canis lupus familiaris
Canis familiaris [20] = assay: Effective dose with the number of animals in PES efficacy model of anesthetized dog; Not effective in one animal; type: functional, Canis lupus familiaris
[21] = Maximum observed percent change in Vmax and the concentration at which it was observed was determined at 100 uM; type: ADME
Canis familiaris [22] = species on record: Canis familiaris; assay: Maximum observed percent change in action potential duration (APD) at 95% repolarization at 3 uM using standard microelectrode technique in isolated canine cardiac Purkinje fibers; type: functional, Canis lupus familiaris, Purkinje fiber
Canis familiaris [23] = species on record: Canis familiaris; assay: Concentration which caused a 20% increase in AP95 was determined. Lowest and highest values given in brackets; not reached; type: functional; conditions: Canis lupus familiaris
[24] = Percent change in the Vmax at a 10 uM concentration of the test compound; type: ADME
[25] = Maximum observed percent change in Vmax and the concentration at which it was observed was determined at 50 uM; Minimal; type: ADME
Canis familiaris [26] = species on record: Canis familiaris; assay: Concentration which caused a 20% increase in AP95 was determined.; Not reached; type: functional; conditions: Canis lupus familiaris
[27] = Maximum observed percent change in Vmax and the concentration at which it was observed was determined at 10 uM; type: ADME
[28] = Maximum observed percent change in Vmax and the concentration at which it was observed was determined; Minimal; type: ADME
Canis familiaris [29] = assay: Number of animals in which sustained ventricular tachycardia or ventricular fibrillation was not inducible after drug administration among the number of animals tested (9) in PES efficacy model of anesthetized dog; type: functional, Canis lupus familiaris, Cardiac ventricle
Canis familiaris [30] = assay: Number of animals in which sustained ventricular tachycardia or ventricular fibrillation was not inducible after drug administration among the number of animals tested (5) in PES efficacy model of anesthetized dog; type: functional, Canis lupus familiaris, Cardiac ventricle
Canis familiaris [31] = assay: Effective dose with the number of animals in PES efficacy model of conscious dog; Not effective in one animal; type: functional, Canis lupus familiaris
[32] = Maximum observed percent change in Vmax and the concentration at which it was observed was determined at 10 uM; Minimal; type: ADME
Canis familiaris [33] = species on record: Canis familiaris; assay: Maximum observed percent change in action potential duration (APD) at 95% repolarization at 1 uM using standard microelectrode technique in isolated canine cardiac Purkinje fibers; type: functional, Canis lupus familiaris, Purkinje fiber
[34] = Maximum observed percent change in Vmax and the concentration at which it was observed was determined at M[30] uM; Minimal; type: ADME

| Structure (SMILES) | Max delta APD95 (Canis familiaris [1]) [%] | Delta Vmax [2] | max Delta Vmax [3] | C20 APD95 (Canis familiaris [4]) [µM] | Max delta APD95 (Canis familiaris [5]) [%] | Delta APD95 (Canis familiaris [6]) [%] | max Delta Vmax [7] | Max delta APD95 (Canis familiaris [14]) [%] | C20 APD95 (Canis familiaris [26]) | also measured |
| --- | --- | --- | --- | --- | --- | --- | --- | --- | --- | --- |
| CCN(CC)CCNC(=O)c1cccc(-n2ccnc2)c1.Cl.Cl | 60 | Minimal | Minimal | 4 | 50 | 27 | Minimal | – | – | – |
| CCN(CC)CCNC(=O)c1ccc(-n2ccnc2)cc1.Cl.Cl | 52.5 | Minimal | Minimal | 2.9 | – | 34 | Minimal | 56 | – | FRP (Canis familiaris [8]): 19%; No effective/ no. tested (Canis familiaris [9]): 4; FRP (Canis familiaris [10]): 13%; Effective dose (Canis familiaris [11]): 3 mg/kg; FRP (Canis familiaris [12]): 12%; HR (Canis familiaris [13]): -29; No. effective (Canis familiaris [15]): 3; Effective dose (Canis familiaris [16]): 1 mg/kg; HR (Canis familiaris [17]): -15; Effective dose (Canis familiaris [18]): 0.3 mg/kg; HR (Canis familiaris [19]): -18; Effective dose (Canis familiaris [20]): 10 mg/kg |
| CCN(CC)CCNC(=O)c1ccc(-c2ncc[nH]2)cc1.Cl.Cl | – | Minimal | – | 65 | – | 7 | – | 31 | – | max Delta Vmax [21]: -14% |
| O=C(NC1CCNCC1)c1ccc(-n2ccnc2)cc1 | – | Minimal | – | – | – | 5 | – | – | – | Max delta [3]: Minimal; Max delta APD95 (Canis familiaris [22]): 10%; C20 APD95 (Canis familiaris [23]): Not reached |
| CCN1CCCC1CNC(=O)c1ccc(-n2ccnc2)cc1.Cc1ccc(S(=O)(=O)O)cc1 (stereo not given) | – | – | – | 3 | – | 39 | Minimal | 72 | – | Delta Vmax [24]: -13%; max Delta Vmax [21]: -26% |
| CS(=O)(=O)O.O=C(c1ccc(-n2ccnc2)cc1)N1CCN(Cc2ccccc2)CC1 | – | Minimal | Minimal | 0.9 | 46 | 46 | – | – | – | – |
| Cl.O=C(NCCNCc1ccccc1)c1ccc(-n2ccnc2)cc1 | – | Minimal | – | 1.2 | 41 | 41 | – | 59 | – | max Delta Vmax [25]: Minimal; max Delta Vmax [21]: -11% |
| O=C(NC1CCN(Cc2ccccc2)CC1)c1ccc(-n2ccnc2)cc1 | 97 | Minimal | Minimal | 0.7 | – | 75 | – | – | – | – |
| CN1CCN(S(=O)(=O)c2ccc(-n3ccnc3)cc2)CC1 | 14 | Minimal | – | 39 | 24 | 9 | Minimal | – | Not reached | max Delta Vmax [27]: -23% |
| Cl.NCCNC(=O)c1ccc(-n2ccnc2)cc1 | – | Minimal | – | – | 10 | 1 | – | 13 | Not reached | max Delta Vmax [28]: Minimal |
| CCN(CC)CCNC(=O)c1ccc(NS(C)(=O)=O)cc1.Cl [SEMATILIDE HYDROCHLORIDE] | 51 | Minimal | Minimal | 4.4 | – | 31 | Minimal | 65 | – | FRP (Canis familiaris [8]): 18%; FRP (Canis familiaris [10]): 19%; No. effective (Canis familiaris [29]): 8; FRP (Canis familiaris [12]): 15%; HR (Canis familiaris [13]): -17; No. effective (Canis familiaris [30]): 4; HR (Canis familiaris [17]): -17; Effective dose (Canis familiaris [31]): 10 mg/kg; HR (Canis familiaris [19]): -23; Effective dose (Canis familiaris [20]): 3 mg/kg |
| CN1CCN(C(=O)c2ccc(-n3ccnc3)cc2)CC1.Cl.Cl | 55 | Minimal | Minimal | 3.7 | 31 | 32 | – | – | – | max Delta Vmax [32]: Minimal |
| CCN(CC)CCN(C(=O)c1ccc(-n2ccnc2)cc1)c1cccc2ccccc12 | – | – | -31% | 0.4 | 46 | 28 | – | – | Not reached | Max delta APD95 (Canis familiaris [33]): 39% and 18% and 24%; Delta Vmax [24]: -14% |
| CCN(CC)CCN(Cc1ccccc1)C(=O)c1ccc(-n2ccnc2)cc1 | 65 | Minimal | Minimal | 0.5 | – | 65 | – | – | – | – |
| O=C(NCCN(Cc1ccccc1)Cc1ccccc1)c1ccc(-n2ccnc2)cc1 | 6.5 | Minimal | Minimal | – | – | 6 | – | – | Not reached | – |
| CCN(CC)CCNC(=O)c1ccc(-n2ccnc2C)cc1.CS(=O)(=O)O | – | Minimal | – | – | 13 | 4 | Minimal | 16 | Not reached | max Delta Vmax [34]: Minimal |
| CCN(CC)[C@H]1CCCCC1NC(=O)c1ccc(-n2ccnc2)cc1.Cl (stereo not given in full) | – | Minimal | – | 1.2 | – | 60 | – | 85 | – | Max delta [21]: -46% |
| CCN(CC)CCCNC(=O)c1ccc(-n2ccnc2)cc1.Cl.Cl | 48 | – | – | 3 | – | 40 | – | – | – | – |
| O=C(c1ccc(-n2ccnc2)cc1)N1CCNCC1 | 28 | Minimal | – | 10.5 | – | 17 | – | – | Not reached | Max delta [3]: Minimal |
